These results are taken from patent publication US20130203843A1, “MILD CATIONIC MITOCHONDRIAL UNCOUPLERS” (LIMITED LIABILITY COMPANY MITOTECH, priority 2010, published 2013).

A short description of data set [1]: Diffusion potential on planar bilayer lipid membrane ("black membrane" model). The note with it: for formation of potential upon creation of gradient of the penetrating cation: 1 μM on cis side, same pH on both sides (pH=7); for formation of proton diffusion potential across lipid bilayer: 1 μM, pH_cis=7, pH_trans=8. The protocol:
FIG. 1. A. C12R19, but not C12RB, induces formation of proton diffusion potential across planar lipid bilayer membrane prepared from DPhPC. Concentrations of C12R19 and C12RB are 1 μM. pH_cis=7, pH_trans=8. B. Formation of potential upon creation of gradient of penetrating cations C12RB and C12R19 (1 μM on cis side) at the same pH on both sides (pH=7).
To test penetrating ability of mitochondria-targeted compounds of structure (I), a method based on the ability of ions to penetrate through the bilayer phospholipid membrane moving along concentration gradient was used. The two chambers filled with an aqueous solution are separated by the bilayer membrane, the compound tested is added to one of the chambers. If a charged compound is capable of penetrating through the bilayer membrane, fast diffusion of the compound from the chamber with its high concentration to the chamber with its low concentration occurs, thus difference in the potentials is formed across the membrane. For ions carrying one charge and capable of passive penetrating through the membrane, the 10-fold concentration gradient allows to produce the potential of 60 mV at room temperature and ideal permeability (according to the Nernst equation).
This method was used in various studies on the ability of ions to penetrate through a bilipid membrane and is described in detail in article: Starkov A A, Bloch D A, Chernyak B V, Dedukhova V I, Mansurova S A, Symonyan R A, Vygodina T V, Skulachev V P, 1997, Biochem. Biophys Acta, 1318, 159-172. With this method, C12-R19 (compound of structure (I)) was tested.
It is known that addition of protonophore to such a system should lead to formation of the electric potential due to the flow of protons. […] This can be explained by shunting of potential due to induction of proton conductivity in the presence of C12R19.

The nature of data set [2]: Dissipation of pH gradient in membranes of pyranine-loaded liposomes. The note with it: for dissipation of pH gradient (intraliposomal pH change), protonophore activity: in the presence of valinomycin (10 nM), C12R19 and C12RB at 0.15 μM, pH 8 buffer. The protocol: FIG. 2. […] Intraliposomal pH was estimated based on the ratio of the intensities of fluorescence at 455 nm and 505 nm (excitation at 410 nm). 1 μM nigericin was added at 550 s for final pH adjustment. Control curve contained C12R19 but no valinomycin. Concentrations: C12R19 (150 nM), C12RB (150 nM), valinomycin (10 nM), lipid (75 μM). […] Control curve corresponds to addition of 10 nM valinomycin without protonophores. Buffer containing 10 mM MES, 10 mM MOPS, 10 mM TRICINE, and 0.1 M KCl (pH 8) was used.
This method was used in various studies on the protonophore activity and is described in detail in article: Chen Y, Schindler M, Simon S M (1999) J Biol Chem 274:18364-18373. […] Said measurements were performed in the presence of valinomycin, the K^+ ionophore.

Data set [3] deals with whole yeast (Saccharomyces cerevisiae) cells. As to the kind of experiment: Rate of oxygen consumption by whole yeast cells. Type of data set: cell-based. The note with it: for stimulation of respiration versus suppression of growth: wide range of concentrations, yeast grown on nonfermentable substrate (glycerol). The protocol:
(§1) FIG. 3. Comparison of properties of C12R19 and C12RB based on relative rate of oxygen consumption by whole yeast (Saccharomyces cerevisiae) cells (A) and yeast growth rate (B). V/V0 corresponds to ratio of oxygen consumption rates after and before addition of uncoupler. Growth rate was defined as the number of CFU (colony-forming units) in cell suspension culture incubated for 2 hours in the presence of indicated concentration of rhodamine derivative.
(§2) FIG. 4. Comparison of stimulation of respiration and suppression of growth: (A) cationic (C12R19), and (B) anionic (FCCP) uncouplers in yeast (Saccharomyces cerevisiae) cells grown on nonfermentable substrate (glycerol). Stimulation of respiration was estimated based on the ratio of oxygen consumption rate in the presence of uncoupler (V) to initial rate (V0). Growth rate was assessed by increase in the number of cells for a given time interval. Growth rate in the absence of uncoupler was taken as 100%.
Simulation of respiration of whole yeast cells reflects uncoupling properties of tested compound.

Data set [4] has as its system yeast Saccharomyces cerevisiae. The experiment in a line: Yeast growth rate in the presence of uncoupler. Type of data set: cell-based. Conditions: 5 μM; incubated for 2 hours. The protocol:
as §1, §2
Under similar conditions experiments determining yeast growth rate in the presence of a given concentration of uncoupler were performed.

Data set [5] relates to yeast cells treated with 80 μM amiodarone. The experiment in a line: Survival of yeast cells treated with amiodarone. Type of data set: cell-based, Saccharomyces cerevisiae. Here is the method: FIG. 5. Comparison of resistance of yeast cells to 80 μM amiodarone in the presence of different concentrations of anionic (FCCP) and cationic (C12R19) uncouplers.
To test this, we compared the survival of yeast cells treated with 80 μM amiodarone in the presence of 1-10000 nmol/L FCCP and C12R19.

The subject of data set [6] is rats with induced rhabdomyolysis. The experiment in a line: Rhabdomyolysis-induced acute renal failure in rats. Type of data set: in vivo. Conditions: rat; i.p. 100 nmol/kg per injection, total 400 nmol/kg; 48 h after glycerol; versus rhabdomyolysis without treatment. Here is the method:
FIG. 6. Creatinine level in blood of rats with induced rhabdomyolysis. Histogram bar “control” indicates level of creatinine in control group of animals; “rhabdo”—creatinine level in animals with rhabdomyolysis; “rhabdo+C12-R19”—creatinine level in animals with rhabdomyolysis and treatment with C12R19. All data are presented as mean±standard error of measurement.
Induction of rhabdomyolysis was performed according to standard method by injecting rat leg muscles with 50% aqueous glycerol solution (ICN, USA). At the second day after ischemia, blood samples from animals were taken. Creatinine concentration in blood was determined using a CellTac blood analyzer (Nihon Kohben). Experiments on modeling of rhabdomyolysis were performed with at least 8 animals from each group. All data are presented as mean±standard error of measurement.
For the treatment, the following scheme of C12R19 administration was used: intraperitoneal injection of the preparation 1 h after induction of rhabdomyolysis and then three times every 12 hours at a dose of 100 nmol/kg per injection. Thus, an animal received a total dose of 400 nmol/kg of C12R19.

For a further data set, the system named is ischemized rats. The experiment in a line: Cerebral ischemia in rats (middle cerebral artery blockage): MRT infarct volume and neurological deficit. The note with it: rat, i.p. 100 nmol/kg 24 hours before ischemia, 1 day after surgery. Format: in vivo. Here is the method:
FIG. 7. Results of behavioral tests in rats before and at the first day after induction of ischemia. Bar “baseline” indicates final points in animals before surgery; “SO”—points in sham-operated animals; “ischemia+saline”—points in ischemized animals without treatment, with saline solution instead of the preparation; “ischemia+C12R19 0.1 μM” and “ischemia+C12R19 2 μM”—points in ischemized animals with treatment with preparation C12R19 at indicated concentrations. Statistically significant (p<0.01) reduction in severity of neurological deficit in rats treated with C12R19, denoted as
Cerebral ischemia in rats was induced by insertion of nylon thread with silicone coating into the middle cerebral artery. Blockage of the blood flow was maintained for 60 min, after which the thread was removed from the vessel restoring the blood flow in the middle cerebral artery. During and after the surgery the body temperature of the animal was maintained at 37° C. Sham-operated animals were subjected to the same procedures, except for cutting vessels and insertion of thread. The volume of cerebral infarction was determined at the first day to study neuroprotective effects of preparations. […]
1 day after surgery, neurological deficit was determined in rats in the test “Stimulation of legs” and magnetic resonance imaging of the brain was performed. […]

A further data set relates to obese people. Conditions: obese people treated with DNP; cited from earlier work.
The subject of data set [7] is yeast cells treated with 80 μM amiodarone. The note with it: earlier publication (Pozniakovsky 2005); cited from earlier work.

For `CCCCCCCCCCCCOC(=O)c1ccccc1-c1c2cc(C)c(=NCC)cc-2oc2cc(NCC)c(C)cc12` (stereo in doubt) [C12R19, Dodecyl-2-[(3E)-6-(ethylamino)-3-(ethylimino)-2,7-dimethyl-3H-xanthen-9-yl]benzoate bromide], in data set [1], the “formation of potential upon creation of gradient of the penetrating cation” value is “did not” and the “formation of proton diffusion potential across lipid bilayer” value is “can generate potential”. Also, the “intraliposomal pH changes” value in [2] (in the absence of valinomycin, C12R19 150 nM) is “pH changes did not occur”. Also, the “dissipation of pH gradient (intraliposomal pH change), protonophore activity” value in data set [2] is “significant changes of intraliposomal pH on the time-scale of minutes”. In addition, the “rate of respiration of whole yeast cells” value in [3] (concentration range that includes 5 μM) is “marked stimulation of the rate of respiration”. Moreover, the “rate of respiration of whole yeast cells” value in data set [3] (up to a concentration of 15 μM) is on record as “did not reduce the rate of respiration”. In addition, the “stimulation of respiration versus suppression of growth” value in data set [3] is on record as “increases respiration rate without inhibiting yeast growth”. Further, the “yeast growth rate (CFU)” value in [4] is given as “significant reduction in the growth rate of the yeast Saccharomyces cerevisiae is not observed”. The “concentration range of cationic uncoupler relative to FCCP” value in data set [5] was “at least an order of magnitude higher”. Moreover, the “concentration range protecting cells against amiodarone” value in data set [5] (1-10000 nmol/L tested) lay within 1 to 1000 nmol/L. The “creatinine level in blood” value in data set [6] is “decrease in creatinine level in blood”. Besides, in the data set on ischemized rats (control rats 2.0±0.2, p<0.01), the “neurological deficit, test "Stimulation of legs" (14-point scale)” value worked out at 5.3±1.1 points. Further, the “volume of ischemic damage (T2-weighted MRT)” value with ischemized rats (saline = 100±8.6%) amounted to 80.4±11.5%.
For `O=[N+]([O-])c1ccc(O)c([N+](=O)[O-])c1` [DNP, 2,4-dinitrophenol], in the data set with obese people, the “side effects in patients” value was “many of them showed severe side effects” and the “weight loss in patients” value is given as “virtually all of the patients lost weight”.
As for `CC(C)[C@@H]1NC(=O)[C@H](C)OC(=O)[C@@H](C(C)C)NC(=O)[C@@H](C(C)C)OC(=O)[C@H](C(C)C)NC(=O)[C@H](C)OC(=O)[C@@H](C(C)C)NC(=O)[C@@H](C(C)C)OC(=O)[C@H](C(C)C)NC(=O)[C@H](C)OC(=O)[C@@H](C(C)C)NC(=O)[C@@H](C(C)C)OC1=O` [valinomycin], in data set [2] (control experiments, data not shown), the “proton flux on liposomes by valinomycin itself” value was “does not induce proton flux on liposomes”.
With `N#CC(C#N)=NNc1ccc(OC(F)(F)F)cc1` [FCCP], in data set [2], the “dissipation of pH gradient (intraliposomal pH change), protonophore activity” value is reported as “significantly greater activity”. Further, the “uncoupling efficiency estimated from rate of oxygen consumption” value in data set [3] (FCCP compared with C12R19) was “much higher than that of C12R19”. For the same compound, the “stimulation of respiration versus suppression of growth” value in data set [3] is on record as “in contrast to FCCP”. In addition, the “yeast cell death caused by amiodarone” value in data set [7] is reported as “prevents yeast cell death caused by amiodarone”.
Turning to `CCCCCCCCCCCCOC(=O)c1ccccc1-c1c2ccc(N(CC)CC)cc2[o+]c2cc(N(CC)CC)ccc12` [C12RB], in [1], the “formation of potential upon creation of gradient of the penetrating cation” value was “induced the potential upon addition at one side” and the “formation of proton diffusion potential across lipid bilayer” value is “but not C12RB, can generate potential”. Further, the “dissipation of pH gradient (intraliposomal pH change), protonophore activity” value in [2] is reported as “practically no activity”. Moreover, the “rate of respiration of whole yeast cells” value in data set [3] (concentration of 4 μM) was “significant increase in the rate of respiration”. The “rate of respiration of whole yeast cells” value in [3] (further increase in concentration above 4 μM) is “inhibition of respiration”.
